This is an account of results in US20060199867A1, “Ambroxol for the treatment of chronic pain” (Boehringer Ingelheim Pharma GmbH, priority 2002, published 2006).

The subject of test [1] is formalin-induced nociceptive behaviors (flinches, licking). Description: Formalin Paw Test. The test is classed as in vivo. The settings on record: Rattus norvegicus, po, male rats, dose at which control values are inhibited by 50%. On the procedure:
Formalin Paw Test (Ref: Carlton S M and Zhou S: Attenuation of formalin-induced nociceptive behaviors following local peripheral injection of gabapeptin. Pain 76, 201-207, 1998). Male rats (Chbb: THOM) weighing 250-300 grams are used. 20 μl of a 2% formaldehyde solution is injected into the plantar region of the right hind paw. Immediately after, the number of flinches (twitches of the affected hind paw) and the length of time spent licking the affected paw are recorded over a period of one hour. After 5 minutes in each case the values are grouped together into epochs. From the epoch values, time-effect curves for flinches and licking are plotted. Typically, two phases of formalin effect are observed (flinches, licking). A first phase lasting 0-10 minutes and a second phase lasting 10-60 minutes. Between the two phases the number of flinches and duration of licking fall towards 0 (interphase). From the time-effect curves the areas under the curve for the first phase and for the second phase are determined. Usually, 5 animals are used for each control, placebo and dose of substance. The results of the doses of substance are compared with those of the controls and ED50 values are calculated. The ED50 is the dose at which the control values are inhibited by 50%.

In test [2] the test system is Tetrodotoxin-sensitive currents. The test is classed as cell-based, rat. The conditions noted are these: read-out: IC50 tetrodotoxin-sensitive currents; neurone cultures from the posterior root ganglions of adult rats.
Test [3] concerns neuropathic pain (tactile allodynia, thermal hyperalgesia). Description: test models for neuropathic pain in the rat. It is filed as in vivo. The conditions noted are these: neuropathic pain models in the rat (Bennett and Xie; Seltzer et al.). From the text: (1) Bennett G J and Xie Y-K. A peripheral mononeuropathy in rat that produces disorders of pain sensation like those seen in man. Pain 33, 87-107, […]. (2) Seltzer, Z., Dubner R. and Shir, Y. A novel behavioral model of neuropathic pain disorder. Pain 43, 205-218, 1990.

Counter-ions that a name gives are not always drawn. Where only a bound is given, the exact number is not on record here.

By ED50 is commonly meant the dose that gives a 50% effect, or the effect in half of the subjects. Lower therefore signals an effect at a small dose. For `Nc1c(Br)cc(Br)cc1CN[C@H]1CC[C@H](O)CC1` [ambroxol hydrochloride], the 50% effect level in test [1] (ED50) was put at a dose of 70 mg/kg.

Broadly, the IC50 is the concentration that gives 50% inhibition. For the molecule `Nc1c(Br)cc(Br)cc1CN[C@H]1CC[C@H](O)CC1` [ambroxol, trans-4-(2-amino-3,5-dibrombenzylamino)-cyclohexanol], in test [2], the IC50 was over 100 µM. For the same molecule, in test [3], the tactile allodynia entry is listed as “reduced the tactile allodynia” and the thermal hyperalgesia entry is recorded as “reduced”.
